In patent US10478390B2, “Use of glycosides to increase hair mass” (L'OREAL, priority 2015, dated 2019):

Tested on: hair follicles from biopsies of human scalps
Assay: Hair follicles cultured in vitro for 8 days: increase in the diameter of the hair shaft (fiber)
Format: cell-based
Settings: for average % of increase of the diameter of the shafts: same test as for proxylane, method states each glycoside at 10 μM, d0 to d8; for average % of increase between D0 and D8: PX 1 mM, hair shaft diameter
Protocol: The hair follicles come from biopsies of human scalps, from cosmetic surgery operations conducted on white Caucasian women aged 45 to 75 years.
The hair follicles are dissected according to the method described in patent application FR 2 736 721 and U.S. Pat. No. 5,712,169, and only the terminal anagen and pigmented hair follicles are studied.
Freshly dissected hair follicles are introduced into multi-well plates containing 500 μL of William's medium, Invitrogen reference 22551022, enriched with insulin to […], 10 ng/mL of hydrocortisone, 10 μg/mL of L-Glutamine and 0.5% antibiotics (Gibco, reference 15240-096).
The C-glycosides are then incubated versus a vehicle alone (control condition), the hair follicles are placed in the incubator (37° C., 5% CO2) and kept alive in these different conditions for 8 days. The culture mediums (of the treated and control conditions) are replaced every two days.
Each glycoside is studied at 10 μM, (dilution of the solid compound in water), versus the vehicle alone (water) for the control condition.
Each condition is carried out on 12 different hair follicles, which makes it possible to overcome inter-follicle variabilities, and repeated over 3 different subjects (biopsies of scalp from 3 different volunteers) in order to evaluate the robustness of the results, and to overcome inter-donor variability.
During the 8 days of treatment, all of the hair follicles are observed and photographed every two days in order to evaluate the maintaining of their survival. They are also measured using a binocular magnifier (Leica) provided with a micrometric eyepiece in order to ensure the proper growth thereof.
The diameter of the hair shaft is measured using photographs taken of all of the hair follicles at d0 and at d8. Using the Leica Application Suite software (Leica), the hair shaft is cropped, its surface is then calculated and its average diameter is determined. The increase in the diameter of the fiber generated in vitro is determined by: (average diameter at d8 Dd8−average diameter at d0 Dd0)*100/Dd0.

SMILES	average % of increase of the diameter of the shafts	thickness of the newly-formed hair shaft (for each subject, in the presence of proxylane)	average % of increase between D0 and D8 (individual 1, control +9.7)	average % of increase between D0 and D8 (individual 2, control +2.7)	average % of increase between D0 and D8 (individual 3, control +4.3)
COc1cc(CCC(O)CC2OC[C@@H](O)[C@H](O)[C@H]2O)ccc1O (stereo partly drawn) [Glycoside 2, (3R,4S,5R)-2-[2-hydroxy-4-(4-hydroxy-3methxyphenyl)butyl] tetrahydro-2Hpyran-3,4,5-triol]	12.7%				
O[C@H]1[C@H](O)COC(OCCc2ccccc2)[C@@H]1O (stereo partly drawn) [Glycoside 3, 2-phenylethyl D-xylopyranoside]	16%				
OC1OC[C@@H](O)[C@H](O)[C@H]1O (stereo partly drawn) [Glycoside 4, D-xylose]	11%				
CC(O)C[C@@H]1OC[C@@H](O)[C@H](O)[C@H]1O (stereo partly drawn) [PX, 1,5-anhydro-6,8-dideoxy-L-gluco-octitol (Proxylane)]		increase in the thickness of the newly-formed hair shaft is observed	+17.5%	+11.2%	+14.5%
